Assay results reported in patent US9598361B1, “Amino substituted acetamide derivative” (KING SAUD UNIVERSITY, priority 2016, dated 2017).
Like-named read-outs stand apart in the source and are kept apart here.

Key:
[1] = tested on: absolute ethanol-induced ulcer; assay: Anti-ulcerogenic activity, absolute ethanol-induced ulcer model; format: in vivo, male Wistar rats; conditions: for inhibition in vivo at 50 mg/kg / inhibition in vivo at 100 mg/kg: Rattus norvegicus, po; for inhibition in vivo at 50 mg/kg: read-out: % protection; for score: lesion score 0-5, rats
Method: (§1) The biological activities of the investigational compounds (CP1-8) were investigated as follows. Swiss albino mice of both sexes (26-30 g) and male Wistar rats (180-200 g) were purchased from the animal house of King Saud University, KSA. Animals were housed in standard polypropylene cages with wire mesh top and maintained under standard conditions (temperature 23±1.0° C., humidity 55±10%, 12 h light/12 h dark cycle). They were fed a standard pellet diet with water ad libitum and were allowed to adapt to the laboratory environment for one week before experimentation.
Evaluation of the anti-ulcerogenic activity was carried out using absolute ethanol-induced ulcer model as described by Bighettia et al. (2005). Eighteen male Wistar rats were divided into 3 groups each of 6 rats. Group 1 received the vehicle and served as control ulcer, Group 2 received ranitidine (100 mg/kg) and served as standard, and Groups 3 received the target compound at a dose of 50 mg/kg for CP1-7 and a dose of 100 mg/kg for CP8.
Rats of all groups were fasted for 24 h then all medications were administered orally. One hour after treatment, the animals received an oral dose of absolute ethanol (1 ml/200 g) and then sacrificed one hour later, by ether inhalation, the stomachs were rapidly removed, opened along their greater curvature and gently rinsed under running tap water.
Number of lesions in the glandular part of the stomach were measured under an illuminated magnifying microscope (10×). Long lesions were counted and their lengths were measured. Petechial lesions were counted, and then each five petechial lesions were taken as 1 mm of ulcer.
The lesion scores in the mucosal lesions were quantified by the scoring system (0-5) 0=no damage, 1=Local edema and inflammation without ulcers; 2=One ulcer without inflammation; 3=one to two ulcers with inflammation & lesion diameter <1 cm; 4=More than two ulcers with lesion diameter 1-2 cm; 5=Sever ulceration with lesion diameter >2 cm (Morris et al., 1989).
In order to calculate the Ulcer Index (mm), the sum of the total length of long ulcers and petechial lesions in each group of rats was divided by its number. The curative ratio was determined according to the formula: […]

[2] = tested on: liver and kidney functions; assay: Effect on liver and kidney functions; format: in vivo, Male Wister rats
Method: The effect on liver and kidney functions using the derivatives were investigated as follows. Male Wister rats were divided into 2 groups, each of 10 rats. The 1st group was left as a control and administered the vehicle orally, while the other group was orally administered the synthesized compounds in a dose of 50 mg/kg (for CP 1-7) or a dose of about 100 mg/kg (for CP 8). After the examination period, 6 h after the last dose blood samples were collected from the orbital plexus of rats. Samples were left to clot at room temperature for 30 min then centrifuged at 1000 rpm for 20 min.
The collected sera were used for determination of the activity of both (AST) aspirate aminotransferase and (ALT) alanine aminotransferase as liver markers. In addition, levels of blood urea, serum creatinine were also estimated as kidney markers (Awaad et al., 2013).

[3] = tested on: acetic acid induced colitis; assay: Anti-ulcerative colitis activity, acetic acid induced colitis; format: in vivo, rats; conditions: for % Protection of control colitis: Table 5, CP8 100 mg/kg; for inhibition in vivo at 50 mg/kg: Rattus norvegicus, po, 120 h, read-out: % Protection; for Wt/l: colon wet weight/length ratio; for effect versus dexamesathone in reducing all colitis parameters (in words): 50 mg/kg versus dexamesathone 0.1 mg/kg
Method: as §1
Groups of animals each of 6 rats were used for assessing the anti-ulcerative colitis activity. The first group received dexamesathone at dose 0.1 mg/kg orally to serve as standard; two other groups received water orally and served as normal control and control colitis. Other groups received the tested compounds CP 1-7 at a dose 50 mg/kg and tested compound CP 8 at a dose of 100 mg/kg. Ulcerative colitis was induced by slowly infusion of 2 mL (4%, v/v) acetic acid in saline into the colon through the catheter. Two hours after the induction of colitis, animals received the 1st dose of all medication, then all groups received medication for 5 consecutive days, two hours after the last dose, animals were sacrificed by ether anesthesia, colonic segments (8 cm in length and 3 cm proximal to the anus) were excised, opened and were used for macroscopic scoring (Awaad et al., 2013).
The colonic lesions were assessed as follows. The colon specimens were weighted and wet weight/length ratio was calculated for all the rats. The specimens were examined under a dissecting microscope and the mucosal lesions were quantified by the scoring system (0-5) given by Awaad et al., (2013) after some modifications. The lesion scores were determined as follows: 0=no damage, 1=Local edema and inflammation without ulcers; 2=One ulcer without inflammation; 3=one to two ulcers with inflammation & lesion diameter <1 cm; 4=More than two ulcers with lesion diameter 1-2 cm; 5=Sever ulceration with lesion diameter >2 cm.
The ulcer area was measured using plane glass square. Each cell on the glass square was 1 mm^2 in area and the number of cells was counted and the ulcer area was determined for each colon. The ulcer index was measured by summing the lesion score and the ulcer area for each colon specimen (Awaad et al, 2013).

[4] = Table 2, protection of control ulcer, oral, CP-1-7 50 mg/kg, ranitidine 100 mg/kg
[5] = Table 3, protection of control ulcer, oral 100 mg/kg
[6] = Table 2, oral, CP-1-7 50 mg/kg, ranitidine 100 mg/kg
[7] = Table 7, rat serum, oral 100 mg/kg, mean ± SD, n = 10
[8] = Table 7, rats, oral 100 mg/kg, mean ± SD, n = 10
[9] = rats, oral 50 mg/kg (CP 1-7) or 100 mg/kg (CP 8)
[10] = Table 6, rat serum, oral 50 mg/kg, 6 h after last dose, mean ± SD, n = 10
[11] = Table 6, rats, oral 50 mg/kg, 6 h after last dose, mean ± SD, n = 10
[12] = Table 4, oral 5 days, CP-1-7 50 mg/kg, dexamethasone 0.1 mg/kg
[13] = Table 4, protection of control colitis, CP-1-7 50 mg/kg, dexamethasone 0.1 mg/kg

| Structure (SMILES) | inhibition in vivo at 50 mg/kg [1, 4] [%] | score [1, 6] | ALT [2, 10] [U/l] | AST [2, 10] [U/l] | Serum Creatinine [2, 11] [mg/dL] | Wt/l [3, 12] | melting point [°C] | Blood Urea [2, 11] [mg/dL] | inhibition in vivo at 50 mg/kg [3, 13] [%] | other results |
| --- | --- | --- | --- | --- | --- | --- | --- | --- | --- | --- |
| CNC(=C[N+](=O)[O-])NCCSCc1ccc(CN(C)C)o1 [Ranitidine, ranitidine, reference compound] | 49.2 | 2.20 |  |  |  |  |  |  |  | inhibition in vivo at 100 mg/kg [1, 5]: 58.8%; score ([1]; Table 3, oral 100 mg/kg): 2.20 |
| NS(=O)(=O)c1ccc(NC(=O)CNc2ccccc2C(=O)O)cc1 [CP8, 2-(2-Hydroxycarbonylphenylamino)-N-(4-aminosulphonylphenyl)acetamide] |  |  |  |  |  |  |  |  |  | ALT [2, 7]: 39.70 ± 0.22 U/l; AST [2, 7]: 66.28 ± 0.40 U/l; Blood Urea [2, 8]: 68.60 ± 1.9 mg/dL; Creatinine [2, 8]: 0.86 ± 0.03 mg/dL; liver functions (activity of AST and ALT), hepatotoxic manifestation (in words) [2, 9]: didn't reveal hepatotoxic manifestation; nephrotoxic manifestations (in words) [2, 9]: no apparent nephrotoxic manifestations; liver and kidney functions versus control (in words) ([2]; rats, oral 100 mg/kg, 0.05 level of probability): not affected; effect versus ranitidine in reducing ulcer index and ulcer score (in words) ([1]; CP8 100 mg/kg versus ranitidine 100 mg/kg): significantly more effective than the standard; inhibition in vivo at 100 mg/kg [1, 5]: 87.1%; score ([1]; Table 3, oral 100 mg/kg): 1.20; % Protection of control colitis ([3]; dexamethasone 0.1 mg/kg): 64.2% |
| N#CC1(c2ccccc2)CCN(CC(=O)Nc2ccc(S(N)(=O)=O)cc2)CC1 [CP-1, 2-[(4-Cyano-4-phenyl)piperidinyl]-N-(4-aminosulphonylphenyl)acetamide] |  | 3.20 | 35.77 ± 1.60 | 44.43 ± 1.57 | 0.88 ± 0.03 | 0.79 ± 0.08 | 196 to 198 |  |  | effect on blood urea concentration (in words) ([2]; rats, oral 50 mg/kg): slightly elevate; inhibition in vivo at 50 mg/kg [1]: 55.5%; inhibition in vivo at 50 mg/kg [3]: 31.7% |
| Cc1cc(NCC(=O)Nc2ccc(S(N)(=O)=O)cc2)c2ccccc2n1 [CP-7, 2-(2-Methylquinolin-4-ylamino)-N-(4-aminosulphonylphenyl)acetamide] | 64.1 | 3.60 | 36.33 ± 1.35 | 46.16 ± 1.48 | 0.85 ± 0.09 | 0.49 ± 0.02 | > 300 | 53.00 ± 0.14 | 66.8 | effect versus dexamesathone in reducing all colitis parameters (in words) [3]: significantly more effective than dexamesathone |
| NS(=O)(=O)c1ccc(NC(=O)CN2CCC(O)(c3ccccc3)CC2)cc1 [CP-2, 2-[(4-Hydroxy-4-phenyl)piperidinyl]-N-(4-aminosulphonylphenyl)acetamide] | 71.9 | 3.20 |  |  |  | 0.74 ± 0.02 | 221 to 223 |  | 49.1 | ALT ([2]; rat, in vivo, po, 50 mg/kg): 39.70 ± 0.22 U/l; AST ([2]; rat, in vivo, po, 50 mg/kg): 66.28 ± 0.40 U/l; Blood Urea ([2]; rat, in vivo, po, 50 mg/kg): 52.55 ± 1.24 mg/dL; Serum Creatinine ([2]; rat, in vivo, po, 50 mg/kg): 0.86 ± 0.03 mg/dL |
| NS(=O)(=O)c1ccc(NC(=O)CN2CCC(c3ccc(Cl)cc3)CC2)cc1 [CP-3, 2-[4(4-Chlorophenyl)piperidinyl]-N-(4-aminosulphonylphenyl)acetamide] | 90.3 | 2.20 | 36.87 ± 1.28 | 44.16 ± 1.57 |  | 0.64 ± 0.05 | 270 to 272 | 46.02 ± 1.10 | 64.2 | effect on serum creatinine (in words) ([2]; rats, oral 50 mg/kg): slightly elevated; effect versus dexamesathone in reducing all colitis parameters (in words) [3]: significantly more effective than dexamesathone |
| COc1ccc(C2CCN(CC(=O)Nc3ccc(S(N)(=O)=O)cc3)CC2)cc1 [CP-5, 2-[4(4-Methoxyphenyl)piperidinyl]-N-(4-aminosulphonylphenyl)acetamide] | 83.6 | 2.40 | 36.35 ± 1.26 | 44.09 ± 1.25 | 0.86 ± 0.07 | 0.75 ± 0.02 | 175 to 177 | 55.92 ± 0.55 | 22.3 |  |
| Cc1cccc(N2CCN(CC(=O)Nc3ccc(S(N)(=O)=O)cc3)CC2)c1C [CP-6, 2-[4(2,3-Xylyl)piperazinyl]-N-(4-aminosulphonylphenyl)acetamide] | 88.5 | 3.00 | 36.02 ± 1.58 | 44.7 ± 1.66 | 0.83 ± 0.08 | 0.71 ± 0.05 | 241 to 243 | 51.00 ± 0.89 | 30.6 |  |
| NS(=O)(=O)c1ccc(NC(=O)CN2CCC(N3CCCCC3)CC2)cc1 [CP-4, 2-[4-(1-Piperidino)piperidinyl]-N-(4-aminosulphonylphenyl)acetamide] | 97.7 | 2.00 | 36.87 ± 1.28 | 44.16 ± 1.57 |  | 0.84 ± 0.02 | 215 to 217 | 47.96 ± 0.84 | 25.3 | effect on serum creatinine (in words) ([2]; rats, oral 50 mg/kg): slightly elevated; score ([3]; Table 4, lesion score 0-5, oral 5 days, CP-1-7 50 mg/kg, dexamethasone 0.1 mg/kg): 3.00 ± 0.63 |
| C[C@@H]1C[C@H]2[C@@H]3CCC4=CC(=O)C=C[C@]4(C)[C@@]3(F)[C@@H](O)C[C@]2(C)[C@@]1(O)C(=O)CO [Dexamethasone, reference compound] |  |  |  |  |  | 0.52 ± 0.07 |  |  | 59.3 | % Protection of control colitis ([3]; dexamethasone 0.1 mg/kg): 60% |
